Experimental data published in ChEMBL document CHEMBL1949526, “Cyclic hydroxyamidines as amide isosteres: discovery of oxadiazolines and oxadiazines as potent and highly efficacious γ-secretase modulators in vivo” (J Med Chem, 2012).

Experiments:
Rattus norvegicus [1] = species: Rattus norvegicus; assay: Toxicity in rat assessed as effect on adipsin expression in jejunum at highest tolerable dose; format: organism-based; conditions: in vivo
[2] = Permeability from apical to basolateral side of human Caco2 cells; format: ADME, cell-based; conditions: Caco-2, read-out: permeability
[3] = Half life in dog at 3 mg/kg, iv; format: ADME, organism-based, Canis lupus familiaris; design: dose 3 mg/kg, route intravenous; conditions: in vivo
[4] = Ratio of drug level in brain to plasma in CD rat at 3 mg/kg, po after 3 hrs; format: ADME, organism-based; design: dose 3 mg/kg, route oral; conditions: read-out: BPR
[5] = Clearance in monkey at 3 mg/kg, iv; format: ADME, organism-based, Macaca mulatta; design: dose 3 mg/kg, route intravenous; conditions: rhesus monkey, in vivo
[6] = Clearance in rat at 3 mg/kg, iv; format: ADME, organism-based; design: dose 3 mg/kg, route intravenous; conditions: in vivo
Rattus norvegicus [7] = assay: Antialzheimer activity in CD rat assessed as reduction in amyloid beta42 level in CSF at 3 mg/kg, po after 3 hrs by alphaLISA analysis; format: functional; design: scale not given: the % may be the effect or the level left
[8] = Volume of distribution at steady state in dog at 3 mg/kg, iv; format: ADME, organism-based, Canis lupus familiaris; design: dose 3 mg/kg, route intravenous; conditions: in vivo, read-out: Vdss
[9] = Plasma concentration in CD rat at 3 mg/kg, po after 3 hrs; format: ADME, organism-based; design: dose 3 mg/kg, route oral
[10] = Cmax in monkey at 10 mg/kg, po; format: ADME, organism-based, Macaca mulatta; design: dose 10 mg/kg, route oral; conditions: rhesus monkey, in vivo
[11] = Volume of distribution at steady state in rat at 3 mg/kg, iv; format: ADME, organism-based; design: dose 3 mg/kg, route intravenous; conditions: in vivo, read-out: Vdss
[12] = Volume of distribution at steady state in monkey at 3 mg/kg, iv; format: ADME, organism-based, Macaca mulatta; design: dose 3 mg/kg, route intravenous; conditions: rhesus monkey, in vivo, read-out: Vdss
[13] = AUC in dog at 10 mg/kg, po; format: ADME, organism-based, Canis lupus familiaris, Plasma; design: dose 10 mg/kg, route oral; conditions: plasma
Rattus norvegicus [14] = assay: Antialzheimer activity in CD rat assessed as reduction in amyloid beta42 level in cortex at 3 mg/kg, po after 3 hrs by alphaLISA analysis; format: functional; design: scale not given: the % may be the effect or the level left
Rattus norvegicus [15] = assay: Antialzheimer activity in CD rat assessed as reduction in amyloid beta40 level in cortex at 3 mg/kg, po after 3 hrs by alphaLISA analysis; format: functional; design: scale not given: the % may be the effect or the level left
[16] = Dissociation constant, pKa of the compound; format: physicochemical
[17] = Oral bioavailability in dog at 10 mg/kg; format: ADME, organism-based, Canis lupus familiaris; conditions: in vivo
Rattus norvegicus [18] = species: Rattus norvegicus; assay: Toxicity in rat assessed as decrease in thymus size at highest tolerable dose; format: organism-based; conditions: in vivo
Cynomolgus monkey [19] = assay: Antialzheimer activity in cynomolgus monkey assessed as reduction in amyloid beta42 level in cortex at 30 mg/kg, po after 4 hrs by alphaLISA analysis; format: functional, Macaca fascicularis; design: scale not given: the % may be the effect or the level left
Canis familiaris = species: Canis familiaris; assay: Cardiotoxicity in dog assessed as effect on electrocardiographic QTc interval at compound concentration required for pharmacological effect; format: toxicity, organism-based, Canis lupus familiaris; conditions: in vivo
[20] = molecular target: Voltage-gated inwardly rectifying potassium channel KCNH2 (Homo sapiens, UniProt Q12809); assay: Inhibition of human ERG by cell based voltage clamp assay
[21] = AUC in monkey at 10 mg/kg, po; format: ADME, organism-based, Macaca mulatta; design: dose 10 mg/kg, route oral; conditions: rhesus monkey, plasma
Rattus norvegicus [22] = assay: Antialzheimer activity in CD rat assessed as reduction in amyloid beta40 level in CSF at 3 mg/kg, po after 3 hrs by alphaLISA analysis; format: functional; design: scale not given: the % may be the effect or the level left
Rattus norvegicus [23] = species: Rattus norvegicus; assay: Toxicity in rat assessed as production of goblet cell meta/hyperplasia in ileum at highest tolerable dose; format: organism-based; conditions: in vivo
[24] = Cmax in dog at 10 mg/kg, po; format: ADME, organism-based, Canis lupus familiaris; design: dose 10 mg/kg, route oral; conditions: in vivo
Gamma-secretase [25] = assay: Modulation of gamma-secretase-mediated cleavage of human APP Swedish and London mutation expressed in HEK293 cells assessed as inhibition of amyloid beta42 production after 5 hrs by sandwich immunoassay; format: cell-based
Rattus norvegicus [26] = assay: Antialzheimer activity in CD rat assessed as reduction in amyloid beta42 level in plasma at 3 mg/kg, po after 3 hrs by alphaLISA analysis; format: functional; design: scale not given: the % may be the effect or the level left
Gamma-secretase [27] = assay: Modulation of gamma-secretase-mediated cleavage of human APP Swedish and London mutation expressed in HEK293 cells assessed as inhibition of amyloid beta40 production after 5 hrs by sandwich immunoassay; format: cell-based
Rattus norvegicus [28] = species: Rattus norvegicus; assay: Toxicity in rat assessed as decrease in body weight at highest tolerable dose; format: organism-based; conditions: in vivo
[29] = Oral bioavailability in monkey at 10 mg/kg; format: ADME, organism-based, Macaca mulatta; conditions: rhesus monkey, in vivo
[30] = Half life in rat at 3 mg/kg, iv; format: ADME, organism-based; design: dose 3 mg/kg, route intravenous; conditions: in vivo
Gamma-secretase [31] = assay: Modulation of gamma-secretase-mediated notch signaling in HEK293 cells transfected with human APP Swedish and London mutation and Notch1 with truncated extracellular EGF repeat domain assessed as production of notch intracellular domain by MSD-based sandwich immunoassay; format: cell-based
[32] = Efflux ratio of permeability from basolateral to apical side over apical to basolateral side in human Caco2 cells; format: ADME, cell-based; conditions: Caco-2
Gamma-secretase [33] = assay: Modulation of gamma-secretase-mediated cleavage of human APP Swedish and London mutation expressed in HEK293 cells assessed as reduction of total amyloid beta level after 5 hrs by sandwich immunoassay; format: cell-based
[34] = Oral bioavailability in rat at 10 mg/kg; format: ADME, organism-based; conditions: in vivo
[35] = Clearance in dog at 3 mg/kg, iv; format: ADME, organism-based, Canis lupus familiaris; design: dose 3 mg/kg, route intravenous; conditions: in vivo
[36] = Cmax in rat at 10 mg/kg, po; format: ADME, organism-based; design: dose 10 mg/kg, route oral; conditions: in vivo
Rattus norvegicus [37] = assay: Antialzheimer activity in CD rat assessed as reduction in total amyloid beta level in plasma at 3 mg/kg, po after 3 hrs by alphaLISA analysis; format: functional; design: scale not given: the % may be the effect or the level left
[38] = Ratio of drug level in brain to plasma in cynomolgus monkey at 30 mg/kg, po after 4 hrs; format: ADME, organism-based, Macaca fascicularis; design: dose 30 mg/kg, route oral; conditions: read-out: BPR
[39] = Half life in monkey at 3 mg/kg, iv; format: ADME, organism-based, Macaca mulatta; design: dose 3 mg/kg, route intravenous; conditions: rhesus monkey, in vivo
[40] = Plasma concentration in cynomolgus monkey at 30 mg/kg, po after 4 hrs; format: ADME, organism-based, Macaca fascicularis; design: dose 30 mg/kg, route oral
[41] = AUC in rat at 10 mg/kg, po; format: ADME, organism-based, Plasma; design: dose 10 mg/kg, route oral; conditions: plasma
Rattus norvegicus [42] = species: Rattus norvegicus; assay: Toxicity in rat assessed as effect on HES-1 expression in jejunum at highest tolerable dose; format: organism-based; conditions: in vivo
Rattus norvegicus [43] = assay: Antialzheimer activity in CD rat assessed as reduction in amyloid beta40 level in plasma at 3 mg/kg, po after 3 hrs by alphaLISA analysis; format: functional; design: scale not given: the % may be the effect or the level left
Rattus norvegicus [44] = assay: Antialzheimer activity in CD rat assessed as reduction in total amyloid beta level in CSF at 3 mg/kg, po after 3 hrs by alphaLISA analysis; format: functional; design: scale not given: the % may be the effect or the level left
Cynomolgus monkey [45] = assay: Antialzheimer activity in cynomolgus monkey assessed as reduction in amyloid beta42 level in CSF at 30 mg/kg, po after 4 hrs by alphaLISA analysis; format: functional, Macaca fascicularis; design: scale not given: the % may be the effect or the level left

Chain of Voltage-gated inwardly rectifying potassium channel KCNH2 (Q12809 whole entry): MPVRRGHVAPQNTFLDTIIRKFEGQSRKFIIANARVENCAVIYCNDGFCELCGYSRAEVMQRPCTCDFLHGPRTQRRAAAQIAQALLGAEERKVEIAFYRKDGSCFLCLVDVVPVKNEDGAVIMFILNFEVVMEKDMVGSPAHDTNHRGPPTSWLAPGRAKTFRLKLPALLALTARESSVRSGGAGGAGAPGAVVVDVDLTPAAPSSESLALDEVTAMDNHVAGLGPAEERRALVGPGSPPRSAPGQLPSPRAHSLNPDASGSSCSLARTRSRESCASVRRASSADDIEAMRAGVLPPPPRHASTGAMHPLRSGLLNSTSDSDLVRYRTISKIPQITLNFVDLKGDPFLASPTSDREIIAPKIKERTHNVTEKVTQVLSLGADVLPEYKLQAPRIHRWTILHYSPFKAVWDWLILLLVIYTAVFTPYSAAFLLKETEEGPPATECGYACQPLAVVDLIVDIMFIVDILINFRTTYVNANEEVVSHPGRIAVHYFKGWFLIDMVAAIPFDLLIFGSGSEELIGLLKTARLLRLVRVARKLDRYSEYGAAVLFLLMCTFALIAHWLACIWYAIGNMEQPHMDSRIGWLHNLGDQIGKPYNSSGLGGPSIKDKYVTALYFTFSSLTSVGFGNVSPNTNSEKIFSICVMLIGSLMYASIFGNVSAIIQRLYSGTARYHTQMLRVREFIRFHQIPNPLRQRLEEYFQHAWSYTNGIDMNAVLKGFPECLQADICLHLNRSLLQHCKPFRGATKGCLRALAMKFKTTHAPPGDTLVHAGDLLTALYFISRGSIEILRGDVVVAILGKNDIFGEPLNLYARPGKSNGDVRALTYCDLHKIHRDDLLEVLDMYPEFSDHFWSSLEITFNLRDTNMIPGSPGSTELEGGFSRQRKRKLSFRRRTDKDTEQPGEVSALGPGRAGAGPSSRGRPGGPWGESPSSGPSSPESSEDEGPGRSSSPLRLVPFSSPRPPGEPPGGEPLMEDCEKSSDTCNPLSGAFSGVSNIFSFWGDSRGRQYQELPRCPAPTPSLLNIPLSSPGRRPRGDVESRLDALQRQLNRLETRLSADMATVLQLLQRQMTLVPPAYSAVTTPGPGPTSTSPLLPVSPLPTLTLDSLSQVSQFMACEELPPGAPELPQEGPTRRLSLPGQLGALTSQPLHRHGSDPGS

Question: With COc1cc(/C=C2\CCCN3C2=NOC[C@@H]3c2cc(F)c(F)c(F)c2)ccc1-n1cnc(C)c1 as the molecule, how does the Activity (Rattus norvegicus [1]) read?
Answer: Its Activity is “Non-toxic”.

Question: And the Papp A→B [2]?
Answer: The Papp A→B was 24.6 ×10⁻⁶ cm/s.

Question: And the half-life [3]?
Answer: Its half-life is 48 min.

Question: What about the Kp at 3 h [4] of the same molecule?
Answer: Its Kp at 3 h is 0.49.

Question: And the clearance [5]?
Answer: The clearance was 11 mL/min/kg.

Question: And the clearance [6]?
Answer: Its clearance is 1.4 mL/min/kg.

Question: What about the Activity (Rattus norvegicus [7]) of the same molecule?
Answer: The Activity was 65%.

Question: And the Vd [8]?
Answer: The Vd was 0.6 L/kg.

Question: What about the concentration at 3 h [9] of the same molecule?
Answer: The concentration at 3 h was 3 µM.

Question: What about the Cmax [10] of the same molecule?
Answer: The Cmax was 4.9 µM.

Question: And the Vd [11]?
Answer: Its Vd is 0.4 L/kg.

Question: What about the Vd [12] of the same molecule?
Answer: The Vd was 0.8 L/kg.

Question: What about the AUC [13] of the same molecule?
Answer: The AUC was 27 µM·h.

Question: And the Activity (Rattus norvegicus [14])?
Answer: The Activity was 63%.

Question: And the Activity (Rattus norvegicus [15])?
Answer: Its Activity is 84%.

Question: And the pKa [16]?
Answer: The pKa was 2.7.

Question: And the bioavailability [17]?
Answer: The bioavailability was 69%.

Question: What about the Activity (Rattus norvegicus [18]) of the same molecule?
Answer: The Activity was “Non-toxic”.

Question: And the Activity (Cynomolgus monkey [19])?
Answer: The Activity was 44%.

Question: And the Activity (Canis familiaris)?
Answer: The Activity was “Non-toxic”.

Question: What about the IC50 [20] of the same molecule?
Answer: Its IC50 is 1000 nM.

Question: What about the AUC [21] of the same molecule?
Answer: Its AUC is 11 µM·h.

Question: And the Activity (Rattus norvegicus [22])?
Answer: Its Activity is 74%.

Question: What about the Activity (Rattus norvegicus [23]) of the same molecule?
Answer: Its Activity is “Non-toxic”.

Question: What about the Cmax [24] of the same molecule?
Answer: The Cmax was 7.9 µM.

Question: What about the IC50 (Gamma-secretase [25]) of the same molecule?
Answer: Its IC50 is 33 nM.

Question: What about the Activity (Rattus norvegicus [26]) of the same molecule?
Answer: The Activity was 32%.

Question: What about the IC50 (Gamma-secretase [27]) of the same molecule?
Answer: Its IC50 is 123 nM.

Question: What about the Activity (Rattus norvegicus [28]) of the same molecule?
Answer: The Activity was “Non-toxic”.

Question: What about the bioavailability [29] of the same molecule?
Answer: Its bioavailability is 34%.

Question: What about the half-life [30] of the same molecule?
Answer: The half-life was 210 min.

Question: And the IC50 (Gamma-secretase [31])?
Answer: Its IC50 is over 50000 nM.

Question: What about the efflux ratio [32] of the same molecule?
Answer: The efflux ratio was 2.

Question: And the IC50 (Gamma-secretase [33])?
Answer: The IC50 was over 20000 nM.

Question: What about the bioavailability [34] of the same molecule?
Answer: Its bioavailability is 100%.

Question: What about the clearance [35] of the same molecule?
Answer: Its clearance is 9 mL/min/kg.

Question: What about the Cmax [36] of the same molecule?
Answer: The Cmax was 19.8 µM.

Question: What about the Activity (Rattus norvegicus [37]) of the same molecule?
Answer: Its Activity is 86%.

Question: And the Kp at 4 h [38]?
Answer: The Kp at 4 h was 1.4.

Question: What about the half-life [39] of the same molecule?
Answer: Its half-life is 54 min.

Question: What about the concentration at 4 h [40] of the same molecule?
Answer: The concentration at 4 h was 6 µM.

Question: And the AUC [41]?
Answer: The AUC was 265 µM·h.

Question: What about the Activity (Rattus norvegicus [42]) of the same molecule?
Answer: The Activity was “Non-toxic”.

Question: And the Activity (Rattus norvegicus [43])?
Answer: Its Activity is 50%.

Question: What about the Activity (Rattus norvegicus [44]) of the same molecule?
Answer: The Activity was 88%.

Question: And the Activity (Cynomolgus monkey [45])?
Answer: The Activity was 70%.
